Data on five compounds can be found in US20150038591A1, “Compounds, compositions and methods for the treatment of tauopathies” (PROTEOTECH INC., priority 2002, published 2015).

SMILES strings stand for the structures.

The target of assay [1] is T1, aggregated Tau-441 (Homo sapiens, UniProt P10636).
T1 construct: purchased rPeptide
As to the kind of experiment: Thioflavin T fluorometry, dissolution/disruption/inhibition of preformed Tau aggregates. The class given is biochemical. To be noted: 3 days at 37° C. The procedure:
Thioflavin T binds specifically to aggregated Tau or Tau tangles, and this binding produces a fluorescence enhancement at 485 nm that is directly proportional to the amount of aggregated Tau. The higher the fluorescence, the greater the amount of aggregated Tau.
In this study, Tau-441 or TauRD was pre-fibrillized or aggregated by combining with Heparin (SIGMA) at 1:1 wt/wt, then incubation at 37° C. and shaking at 1400 rpm for 8 days. […] Following 3-days of co-incubation, 50 μl of each incubation mixture was transferred into a 96-well microtiter plate containing 150 μl of distilled water and 50 μl of a Thioflavin T solution (i.e. […] Thioflavin T in 250 mM phosphate buffer, pH 6.8). The fluorescence was read at 485 nm (444 nm excitation wavelength) using an ELISA plate fluorometer after subtraction with buffer alone or compound alone, as blank.

The target in assay [2] is Tau aggregates (Homo sapiens, UniProt P10636). As to the kind of experiment: Thioflavin S fluorometry, dissolution/disruption/inhibition of Tau aggregates. It is filed as biochemical. The procedure: In contrast to quantitation of Aβ fibrils, where ThioT is used, it was shown for tau aggregates that ThioS is more reproducible and independent of solvent characteristics. […] (Friedhoff, P et al. (1998) Biochem 10223-10230)
Sequence of Tau aggregates (P10636 1-441 isoform P10636-8): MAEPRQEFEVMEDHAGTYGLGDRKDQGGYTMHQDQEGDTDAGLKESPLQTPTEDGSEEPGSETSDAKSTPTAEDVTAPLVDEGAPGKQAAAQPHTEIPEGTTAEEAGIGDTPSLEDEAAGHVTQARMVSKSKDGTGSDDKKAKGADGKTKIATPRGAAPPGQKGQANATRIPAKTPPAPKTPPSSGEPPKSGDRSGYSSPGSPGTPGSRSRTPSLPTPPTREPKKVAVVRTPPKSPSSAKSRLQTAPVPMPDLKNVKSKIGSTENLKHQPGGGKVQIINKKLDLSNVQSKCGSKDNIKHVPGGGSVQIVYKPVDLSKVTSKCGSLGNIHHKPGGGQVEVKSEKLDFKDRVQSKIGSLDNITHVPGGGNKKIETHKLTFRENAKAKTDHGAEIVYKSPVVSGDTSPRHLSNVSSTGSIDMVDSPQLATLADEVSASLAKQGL
The Thio S assay involves the dilution of 500 μM ThioS stock 1:1 with PBS. Pipette 25 μl of this into the wells of a 96-well assay plate. Add 50 μl samples and 50 μl PBS and mix well. Read plates immediately on a fluorometer with the excitation set at 444 nm and emission set at 485 nm. […] Log transformed values are analyzed using “Nonlinear regression (curve fit) log(inhibitor) vs. normalized response—Variable slope” analysis.

The mark [3] stands for this setting: Tau:test compound wt/wt ratio 1:0.001.
Setting [4] is: Tau:test compound wt/wt ratio 1:0.01.
[5] abbreviates: Tau:test compound wt/wt ratio 1:0.1.
Setting [6] is: Tau:test compound wt/wt ratio 1:1.

T1 sequence (P10636 1-441 isoform P10636-8): as above

On to `O=C(Nc1ccc(O)c(O)c1)Nc1ccc(O)c(O)c1` [Compound 76, 1,3-Bis(3,4-dihydroxyphenyl)urea], for which the “% dissolution/disruption/inhibition Tau (result ± S.D.)” value was 17.4 ± 4.88% in assay [1] (setting [3]), 54.1 ± 2.62% in assay [1] (setting [4]), 91.2 ± 0.56% in assay [1] (setting [5]) and 94.1 ± 2.99% in assay [1] (setting [6]). In addition, half-maximal inhibition in assay [2] (IC50) was put at 3.95 µM.

In the case of `Oc1ccc(CCc2ccc(O)c(O)c2)cc1O` [Compound 4, 1,2-bis(3,4-dihydroxyphenyl)ethane], the “% dissolution/disruption/inhibition Tau (result ± S.D.)” value in assay [1] (setting [3]) came to 19.3 ± 0.00%; in assay [1] (setting [4]), 68.0 ± 1.71%; in assay [1] (setting [5]), 92.8 ± 2.59%; in assay [1] (setting [6]) it was 93.5 ± 4.42%. The midpoint of inhibition in assay [2], the IC50, lay at 10.8 µM.

Consider `O=C(Nc1ccc(O)c(O)c1)C(=O)Nc1ccc(O)c(O)c1` [Compound 63, oxalic acid bis(3,4-dihydroxyanilide)], for which the “% dissolution/disruption/inhibition Tau (result ± S.D.)” value in assay [1] (setting [3]) was determined as 11.8 ± 8.06%; in assay [1] (setting [4]) it was 16.5 ± 2.49%; in assay [1] (setting [5]), 34.7 ± 1.69%; in assay [1] (setting [6]), 77.8 ± 1.13%.

Regarding `Oc1ccc(Cc2ccc(O)c(O)c2)cc1O` [Compound 3, 3,4,3′,4′-Tetrahydroxydiphenylmethane], the “% dissolution/disruption/inhibition Tau (result ± S.D.)” value is recorded as 17.0 ± 2.49% in assay [1] (setting [3]), 54.1 ± 2.62% in assay [1] (setting [4]), 89.2 ± 1.96% in assay [1] (setting [5]) and 91.2 ± 2.59% in assay [1] (setting [6]). The IC50 in assay [2] amounted to 32.4 µM.

`O=C(NCCc1ccc(O)c(O)c1)Nc1ccc(O)c(O)c1` [Compound 78, 1-(3,4-Dihydroxyphenyl)-3-(3,4-dihydroxyphenethyl)urea]: the IC50 in assay [2] came out at 5.26 µM.

As usually defined, the IC50 is the concentration at which inhibition is half-maximal.
